{
  "source": "patent US20200340984A1",
  "about": "“METHODS OF QUANTIFYING CFTR PROTEIN EXPRESSION” (Proteostasis Therapeutics, Inc., priority 2017, published 2020)",
  "key": {"CFTR mRNA": {"tested_on": "CFTR mRNA", "assay": "CFTR mRNA qPCR, HNE-CF (F508del) cultures", "assay_type": "cell-based, human", "settings": "qPCR (CFTR/Actin RNA), HNE-CF (homozygous F508del), 10 μM, 24 hours, vs DMSO", "experimental": "(§1) Primary human airway epithelial cells of nasal origin (HNEs) from CF donors homozygous for the F508del mutation (HNE CF) and non-CF donors (HNE WT) were purchased from Epithelix Sàrl (Geneva, Switzerland). The cells were cultured and differentiated as previously described (Pranke et al. (2017) Sci Rep. 7(1):7375). The primary cells were apically mucous washed for 30 minutes prior to treatment with the amplifier PTI-CH (1, 3, or 10 μM) and DMSO for 24 hours.\nFor isolation of RNA from cells, the filters were washed with PBS at room temperature. Total RNA was isolated using the Qiagen RNeasy Plus Universal Mini kit (Qiagen, Oslo, Norway). […] The RNA was quantified by NanoDrop (Thermo Fisher Scientific).\nFor Reverse transcription, 500 ng of total RNA was used for cells and 150 ng of RNA for nasal brushing sample was reverse transcribed using a High-Capacity Transcription Kit (Thermo Fisher Scientific) according to manufacturer's protocol. The CFTR transcript levels were measured using a human-specific CFTR primer (Catalog Number Hs00357011_ml, FAM-labeled Life Technologies). […]\n(§2) To further confirm this finding, human nasal epithelial (HNE) cultures obtained from a non-CF (HNE-WT) or CF (HNE-F508del) donor were treated with and amplifier compound. Following 24-hour treatment period, filters were analyzed for either mRNA or protein analyses. […]"}, "F508del CFTR protein": {"tested_on": "F508del CFTR protein", "assay": "CFTR ELISA, HNE-CF (F508del) cultures", "assay_type": "cell-based, human", "settings": "HNE-CF (homozygous F508del), 10 μM, 24 hours, vs DMSO", "experimental": "as §1\n96-well half area microplates (Greiner Bio-One, Monroe, N.C.) were coated with 3 μg/mL of CFTR antibody UNC596 overnight at 4° C. with gentle shaking. Wells were washed 3 times with TBS-T buffer, blocked with SuperBlock™ T20 Blocking Buffer (Thermo Fisher Scientific) and the washing step was repeated. The CFTR standard used was a fusion peptide (SEQ ID NO:1) that is recognized by UNC450 and UNC596 (GenScript, Piscataway, N.J.).\nSerial dilutions of CFTR standard, cell lysates, and nasal brushing samples were prepared in IP lysis buffer. […] The assay was read on the EnVision-Multilabel Reader (Perkin Elmer, Waltham, Mass.).\nas §2"}},
  "data": [
    {"compound": "O=C(NCCCn1nncc1CO)c1cc(-c2ccccc2)on1", "note": "[PTI-CH]", "values": [
      {"measurement": "increase in CFTR mRNA expression", "setting": "CFTR mRNA", "result": "approximately 3 fold"},
      {"measurement": "increase in CFTR protein", "setting": "F508del CFTR protein", "result": 1.7, "unit": "fold"}
    ]}
  ]
}
